Where two headings read alike, the source gives them in different places.
Columns and labels:
[1] = tested on: HeLa cells; assay: Transfection efficiency with Luciferase (SecNLuc) mRNA, Nano-Glo assay (Method A); assay type: cell-based; details: Luc mRNA, 24 h, luminescence; for Transfection 10 ng mRNA: 10 ng mRNA/well; for Transfection 50 ng mRNA: 50 ng mRNA/well; for Transfection 100 ng mRNA: 100 ng mRNA/well
Method: (§1) The synthesized lipids were tested in term of in vitro transfection efficacy and toxicity on HeLa cells. In order to perform the mentioned biological tests, appropriate LNPs had to be formulated from the synthesized lipids. The formulation technique was different in Method A and B. The particle size, polydispersity index (PDI) and zeta potential of resulting LNPs were determined by means of Dynamic Light Scattering technique (DLS). Prior to biological testing the encapsulation efficiency (EE) of the loaded LNPs was determined by using RiboGreen RNA assay. In case of Method A Luc mRNA while in case of Method B GFP mRNA was transfected into the cells. In parallel with the transfection experiments, toxicity of the investigated LNPs was determined, in case of Method A resazurin assay while in case of Method B MTT assay was used. Additionally, the toxicity of the lipids was investigated on HepG2 cells and IC50 values were determined.
• 1. Prepare mRNA solution by adding 100 ng mRNA (SecNLuc, #P009024, RiboPro) to 5 μl Opti-MEM • multiply by number of wells, include different concentrations and add 10% extra • a standard set-up we use is 100 ng-50 ng-10 ng mRNA/well in triplicate, which would need […] mRNA (includes 10% extra)
• 2. (If applicable) Prepare different concentrations in Opti-MEM (for instance 100/50/10 ng). • 3. Add 10 μl to each well and mix carefully by pipetting. • 4. Mix by swirling the plate horizontally at modest speed. Reverse in direction 3 times. • 5. Incubate for 24 hours (incubator).
This protocol is applied to measure luciferase activity for secreted NanoLuc and is based on the protocol by Promega (Nano-Glo® Luciferase Assay System #N1110-1150). The protocol is designed for a 384-wells plate, but volumes can be changed accordingly for other plates.
• 1. Plate cells (HeLa) in 96-well plate, grow until 80% confluent and transfect with SecNanoLuc mRNA and incubate for the desired period (24 h). • 2. After incubation, the translated protein is accumulated in the medium. Transfer medium to a new plate or tubes. • 3. Transfer 12 μl of each sample to a black-walled, clear-bottom 384-well plate • Black-walled plates are important to prevent shine-through of luminescence from other wells; alternatively, multiple wells between samples can be left empty. • 4. Set-up plate reader • 5. Prepare the desired amount of Nano-Glo® Luciferase Assay Reagent by combining one volume of Nano-Glo® Luciferase Assay Substrate with 50 volumes of Nano-Glo® Luciferase Assay Buffer: • a. composition: 100 mM MES pH 6; 1 mM EDTA; […]; 150 mM KCl; 1 mM DTT; 35 mM Thiourea; • b. briefly spin tubes containing substrate in a microcentrifuge before use. • 6. Add and mix (by pipetting) 12 μl Nano-Glo® Luciferase Assay Reagent per well • Wait approximately 3 minutes before measuring luminescence. […] Measure luminescence in plate reader using standard protocol luciferase (this includes mixing sample in plate reader)

[2] = tested on: HeLa cells; assay: Cell viability assessment with resazurin assay (Method A); assay type: cell-based
Method: as §1
This protocol is used to determine the metabolic activity of cells as a measure for cell viability after exposure to potentially toxic substances. Resazurin is converted in mitochondria by reduction to resorufin, which has a much higher fluorescence at ˜600 nm compared to unconverted resazurin. A lower amount/percentage of conversion is correlated with reduced cellular metabolism and indirectly to cellular death and toxicity. Care must be taken with interpretation of the read-out, as 50% reduction in resazurin conversion may mean 50% reduction of cellular metabolism of 100% alive cells, or 50% of cells dead, and any combination in between.
• 1. Prepare 0.25 mg/ml stock solution resazurin in fresh cell culture medium. Resazurin is auto-reducing over time in solution, especially in medium, and fresh stocks should be prepared every 2-3 days. Stocks should be stored at 4° C. and protected from light. For HeLa cells, DMEM/F12 with 10% FCS is used. • 2. Dilute stock solution 10× in fresh cell culture medium to 0.025 mg/ml->ready for application on cells. For HeLa cells, DMEM/F12 with 10% FCS is used. • 3. Collect 96-well plate and replace cell-culture spent medium with 100 μl per well resazurin solution. Add some resazurin solution for background measurement in wells not containing cells. • 4. Incubate for 50 minutes in incubator at 37° C., 5% CO2, 95% RH. • 5. Transfer resazurin solution to a fresh 96- or 384-well plate. • 6. Measure in plate reader using 540/25 nm (excitation) and 610/40 nm (emission) using standard settings (PTM low/OD-1.0). • 7. Subtract the average background measurement from all samples. Set the average of the negative controls (well receiving OptiMEM only during transfection) to 100% and express all values as percentage of the control activity. Typically, at lower levels of treatment, elevation of metabolic activity is shown, whereas for toxic substances, at toxic concentrations sigmoidal curves can be obtained, with lower activity indicating higher toxicity.

Row | SMILES | Transfection 10 ng mRNA [1] | Transfection 50 ng mRNA [1] | Transfection 100 ng mRNA [1] | Cell Viability % (Average metabolic rate over all doses, Resazurin) ([2]; human) | Cell Viability % (Average metabolic rate over all doses, Resazurin) [2]
1 | CCCCC/C=C\C/C=C\CCCCCCCCO[Si](C)(C)OC(CCCCCCC/C=C\CCCCCCCC)OCCCN(C)C (centres unmarked) [Example 81, (17Z,20Z)-5-((Z)-heptadec-8-en-1-yl)-N,N,7,7-tetramethyl-4,6,8-trioxa-7-silahexacosa-17,20-dien-1-amine] | 1.57E+02 | 5.31E+02 | 5.71E+02 | 100% | –
2 | CCCCCCCC/C=C\CCCCCCCCOC(=O)C(C)(C)CCC(OCCCCCCCC/C=C\CCCCCCCC)O[Si](C)(C)OCCCCCCN(CCO)CCO (centres unmarked) [Example 94, (Z)-octadec-9-en-1-yl 1-hydroxy-3-(2-hydroxyethyl)-11,11,16,16-tetramethyl-13-(((Z)-octadec-9-en-1-yl)oxy)-10,12-dioxa-3-aza-11-silaheptadecan-17-oate] | 7.50E+02 | 8.22E+03 | 3.14E+04 | 101% | –
3 | CCCCCCCC/C=C\CCCCCCCCOC(=O)C(C)(C)CC(OCCCCCCCC/C=C\CCCCCCCC)O[Si](C)(C)OCCCCCCN(C)CCO (centres unmarked) [Example 93, (Z)-octadec-9-en-1-yl 1-hydroxy-3,11,11,15,15-pentamethyl-13-(((Z)-octadec-9-en-1-yl)oxy)-10,12-dioxa-3-aza-11-silahexadecan-16-oate] | 2.73E+03 | 2.75E+04 | 1.19E+05 | 106% | –
4 | C#CCN(C)CCCCCCO[Si](C)(C)OC(CC(C)(C)C(=O)OCCCCCCCC/C=C\CCCCCCCC)OCCCCCCCC/C=C\CCCCCCCC (centres unmarked) [Example 97, (Z)-octadec-9-en-1-yl 4,12,12,16,16-pentamethyl-14-(((Z)-octadec-9-en-1-yl)oxy)-11,13-dioxa-4-aza-12-silaheptadec-1-yn-17-oate] | 3.01E+02 | 1.34E+03 | 1.28E+03 | 109% | –
5 | CCCCC/C=C\C/C=C\CCCCCCCCOC(CCCCCCCCCCCCCCC)O[Si](C)(C)OCCCCCCN(CCO)CCO (centres unmarked) [Example 43, (23Z,26Z)-3-(2-hydroxyethyl)-11,11-dimethyl-13-pentadecyl-10,12,14-trioxa-3-aza-11-siladotriaconta-23,26-dien-1-ol] | 4.81E+05 | 5.50E+06 | 1.32E+07 | 98% | –
6 | CCCCCCCCCCCOC(=O)CCCCCN(CCO)CCCCCCCC(=O)OC(CCCCCCCC)CCCCCCCC [SM-102, reference compound] | 2.15E+06 | 7.53E+06 | 7.61E+06 | – | 91%
7 | CCCCC/C=C\C/C=C\CCCCCCCCOC(CCCCCN(C)CC(O)CO)O[Si](C)(C)OCCCCCCCC/C=C\C/C=C\CCCCC (centres unmarked) [Example 66, (22Z,25Z)-4,12,12-trimethyl-10-(((9Z,12Z)-octadeca-9,12-dien-1-yl)oxy)-11,13-dioxa-4-aza-12-silahentriaconta-22,25-diene-1,2-diol] | 1.06E+05 | 1.14E+06 | 3.31E+06 | 91% | –
8 | CCCCCCCC/C=C\CCCCCCCCOC(CCCCCCCCCCCCCCC)O[Si](C)(C)OCCCCCCN(CCO)CCO (centres unmarked) [Example 41, (Z)-3-(2-hydroxyethyl)-11,11-dimethyl-13-pentadecyl-10,12,14-trioxa-3-aza-11-siladotriacont-23-en-1-ol] | 3.11E+05 | 3.64E+06 | 1.03E+07 | 98% | –
9 | CCCCC/C=C\C/C=C\CCCCCCCCOC(CCCCCCC/C=C\CCCCCCCC)O[Si](C)(C)OCCCCCCN(CCO)CCO (centres unmarked) [Example 46, (23Z,26Z)-13-((Z)-heptadec-8-en-1-yl)-3-(2-hydroxyethyl)-11,11-dimethyl-10,12,14-trioxa-3-aza-11-siladotriaconta-23,26-dien-1-ol] | 1.46E+05 | 1.93E+06 | 8.16E+06 | 95% | –
10 | CCCCC/C=C\C/C=C\CCCCCCCCOC(CCCCCCC/C=C\C/C=C\CCCCC)O[Si](C)(C)OCCCCCCN1CCCCC1CO (centres unmarked) [Example 64, (1-((20Z,23Z)-10-((8Z,11Z)-heptadeca-8,11-dien-1-yl)-8,8-dimethyl-7,9,11-trioxa-8-silanonacosa-20,23-dien-1-yl)piperidin-2-yl)methanol] | 3.40E+05 | 1.89E+06 | 3.78E+06 | 100% | –
11 | CCCCC/C=C\C/C=C\CCCCCCCC(OCCCCCCCCCCCCCCCC)O[Si](C)(C)OCCCCCCN(CCO)CCO (centres unmarked) [Example 44, 13-((8Z,11Z)-heptadeca-8,11-dien-1-yl)-3-(2-hydroxyethyl)-11,11-dimethyl-10,12,14-trioxa-3-aza-11-silatriacontan-1-ol] | 1.57E+05 | 2.08E+06 | 7.09E+06 | 94% | –
12 | CCCCCCCC/C=C\CCCCCCCC(OCC(CCCCCC)CCCCCCCC)O[Si](C)(C)OCCCCCCN(CCO)CCO (centres unmarked) [Example 50, (Z)-13-(heptadec-8-en-1-yl)-16-hexyl-3-(2-hydroxyethyl)-11,11-dimethyl-10,12,14-trioxa-3-aza-11-silatetracosan-1-ol] | 5.85E+04 | 2.12E+06 | 8.19E+06 | 98% | –
13 | CCCCC/C=C\C/C=C\CCCCCCCC(OCCCCCCCC/C=C\CCCCCCCC)O[Si](C)(C)OCCCCCCN(CCO)CCO (centres unmarked) [Example 45, (Z)-13-((8Z,11Z)-heptadeca-8,11-dien-1-yl)-3-(2-hydroxyethyl)-11,11-dimethyl-10,12,14-trioxa-3-aza-11-siladotriacont-23-en-1-ol] | 1.80E+05 | 2.42E+06 | 7.94E+06 | 96% | –
14 | CCCCCCCC/C=C\CCCCCCCCOC(=O)C(C)(C)CC(OCCCCCCCC/C=C\CCCCCCCC)O[Si](C)(C)OCCCCCCN1CCCCC1 (centres unmarked) [Example 87, (Z)-octadec-9-en-1-yl 4-((dimethyl((6-(piperidin-1-yl)hexyl)oxy)silyl)oxy)-2,2-dimethyl-4-(((Z)-octadec-9-en-1-yl)oxy)butanoate] | 5.68E+03 | 5.01E+04 | 9.96E+04 | 84% | –

From patent US20260109721A1, “IONIZABLE CATIONIC LIPIDS INCORPORATING SILICON: SYNTHESIS AND LNP FORMULATION” (priority 2023, published 2026)
